Read-outs that look alike come from different tables or passages of the source.
Tests used:
Test in all cases: biochemical
Design in all cases: Eurofins KinaseProfiler full panel at Km ATP, residual kinase activity (%) relative to DMSO
MAP4K3(h) = target: T1, MAP4K3(h) (Homo sapiens, UniProt Q8IVH8)
T1 sequence (Q8IVH8 1-894): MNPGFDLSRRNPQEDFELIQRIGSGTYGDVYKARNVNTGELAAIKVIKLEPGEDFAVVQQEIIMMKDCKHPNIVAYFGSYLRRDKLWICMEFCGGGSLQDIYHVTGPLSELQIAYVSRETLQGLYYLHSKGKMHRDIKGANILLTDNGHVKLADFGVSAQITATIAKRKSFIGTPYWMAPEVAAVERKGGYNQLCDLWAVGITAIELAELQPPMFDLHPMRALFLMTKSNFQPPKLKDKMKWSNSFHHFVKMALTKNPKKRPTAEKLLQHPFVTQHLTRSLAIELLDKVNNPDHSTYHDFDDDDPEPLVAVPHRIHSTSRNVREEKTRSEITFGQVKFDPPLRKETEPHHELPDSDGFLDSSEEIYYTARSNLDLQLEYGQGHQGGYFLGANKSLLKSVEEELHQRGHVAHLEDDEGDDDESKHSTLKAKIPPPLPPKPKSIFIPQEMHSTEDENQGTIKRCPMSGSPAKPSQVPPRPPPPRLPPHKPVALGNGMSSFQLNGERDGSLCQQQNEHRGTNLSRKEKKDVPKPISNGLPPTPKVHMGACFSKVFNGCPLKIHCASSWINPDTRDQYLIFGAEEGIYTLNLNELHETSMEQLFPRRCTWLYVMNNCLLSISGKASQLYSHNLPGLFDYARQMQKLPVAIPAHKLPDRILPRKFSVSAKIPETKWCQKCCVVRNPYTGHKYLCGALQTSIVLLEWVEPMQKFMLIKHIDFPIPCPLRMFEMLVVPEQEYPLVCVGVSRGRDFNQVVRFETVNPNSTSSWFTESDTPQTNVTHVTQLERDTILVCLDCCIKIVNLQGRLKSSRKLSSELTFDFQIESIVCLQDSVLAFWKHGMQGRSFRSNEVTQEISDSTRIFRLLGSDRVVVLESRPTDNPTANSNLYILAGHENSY
Outline: (§1)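 Radiometric kinase activity assays were run with ATP at Km and compounds at 10 µM, and remaining activity (%) was reported. A separate competitive binding screen measured DNA-tagged kinase displaced from immobilized active-site ligands by qPCR, giving percent kinase still bound at 10 µM compound in DMSO.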

CDK13/cyclinK(h) = CDK13/cyclinK(h) (Homo sapiens, UniProt Q14004)
Outline: as §1

PhKγ2(h) = target: T2, PhKγ2(h) (Homo sapiens, UniProt P15735)
T2 construct: gene PHKG2
T2 sequence (P15735 1-406): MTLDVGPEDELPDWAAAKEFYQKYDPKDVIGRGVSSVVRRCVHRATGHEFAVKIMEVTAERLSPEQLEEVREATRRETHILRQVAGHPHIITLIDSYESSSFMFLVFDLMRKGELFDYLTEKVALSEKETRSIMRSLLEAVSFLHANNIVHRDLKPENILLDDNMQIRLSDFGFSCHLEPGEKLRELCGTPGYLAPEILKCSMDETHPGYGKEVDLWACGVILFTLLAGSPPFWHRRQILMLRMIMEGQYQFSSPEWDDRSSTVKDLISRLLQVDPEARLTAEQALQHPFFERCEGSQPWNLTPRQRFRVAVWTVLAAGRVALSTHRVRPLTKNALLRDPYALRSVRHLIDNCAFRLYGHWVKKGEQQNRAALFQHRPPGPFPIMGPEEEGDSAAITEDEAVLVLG
Outline: as §1

PKCε(h) = target: T3, PKCε(h) (Homo sapiens, UniProt Q02156)
T3 construct: gene PRKCE
T3 sequence (Q02156 1-737): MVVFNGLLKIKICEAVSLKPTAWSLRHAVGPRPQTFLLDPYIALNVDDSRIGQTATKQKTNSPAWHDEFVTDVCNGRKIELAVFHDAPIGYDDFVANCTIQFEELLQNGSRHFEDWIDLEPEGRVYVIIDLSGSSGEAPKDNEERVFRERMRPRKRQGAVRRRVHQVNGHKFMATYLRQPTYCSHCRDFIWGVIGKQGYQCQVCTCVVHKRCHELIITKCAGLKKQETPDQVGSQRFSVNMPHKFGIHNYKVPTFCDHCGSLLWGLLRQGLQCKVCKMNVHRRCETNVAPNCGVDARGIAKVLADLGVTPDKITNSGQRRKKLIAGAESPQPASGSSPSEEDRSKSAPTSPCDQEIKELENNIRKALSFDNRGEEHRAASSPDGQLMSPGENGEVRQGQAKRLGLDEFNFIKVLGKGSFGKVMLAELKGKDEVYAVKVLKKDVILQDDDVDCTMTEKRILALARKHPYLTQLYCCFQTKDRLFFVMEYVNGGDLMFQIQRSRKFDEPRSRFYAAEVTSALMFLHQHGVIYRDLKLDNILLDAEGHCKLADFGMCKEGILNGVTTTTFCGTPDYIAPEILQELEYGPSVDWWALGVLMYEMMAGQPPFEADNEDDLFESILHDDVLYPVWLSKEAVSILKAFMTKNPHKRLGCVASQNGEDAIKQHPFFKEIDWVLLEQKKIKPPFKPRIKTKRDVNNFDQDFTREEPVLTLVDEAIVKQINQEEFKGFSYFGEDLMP
Outline: as §1

TAF1L(h) = TAF1L(h) (Homo sapiens, UniProt Q8IZX4)
Outline: as §1

STK32A(h) = STK32A(h) (Homo sapiens, UniProt Q8WU08)
Outline: as §1

[1] = read-out: Residual activity (%) Spautin-1 5aa
[2] = read-out: Residual activity (%) 5as
[3] = read-out: Residual activity (%) 5at
[4] = read-out: Residual activity (%) 5ay

Sequence of CDK13/cyclinK(h) (Q14004 whole entry): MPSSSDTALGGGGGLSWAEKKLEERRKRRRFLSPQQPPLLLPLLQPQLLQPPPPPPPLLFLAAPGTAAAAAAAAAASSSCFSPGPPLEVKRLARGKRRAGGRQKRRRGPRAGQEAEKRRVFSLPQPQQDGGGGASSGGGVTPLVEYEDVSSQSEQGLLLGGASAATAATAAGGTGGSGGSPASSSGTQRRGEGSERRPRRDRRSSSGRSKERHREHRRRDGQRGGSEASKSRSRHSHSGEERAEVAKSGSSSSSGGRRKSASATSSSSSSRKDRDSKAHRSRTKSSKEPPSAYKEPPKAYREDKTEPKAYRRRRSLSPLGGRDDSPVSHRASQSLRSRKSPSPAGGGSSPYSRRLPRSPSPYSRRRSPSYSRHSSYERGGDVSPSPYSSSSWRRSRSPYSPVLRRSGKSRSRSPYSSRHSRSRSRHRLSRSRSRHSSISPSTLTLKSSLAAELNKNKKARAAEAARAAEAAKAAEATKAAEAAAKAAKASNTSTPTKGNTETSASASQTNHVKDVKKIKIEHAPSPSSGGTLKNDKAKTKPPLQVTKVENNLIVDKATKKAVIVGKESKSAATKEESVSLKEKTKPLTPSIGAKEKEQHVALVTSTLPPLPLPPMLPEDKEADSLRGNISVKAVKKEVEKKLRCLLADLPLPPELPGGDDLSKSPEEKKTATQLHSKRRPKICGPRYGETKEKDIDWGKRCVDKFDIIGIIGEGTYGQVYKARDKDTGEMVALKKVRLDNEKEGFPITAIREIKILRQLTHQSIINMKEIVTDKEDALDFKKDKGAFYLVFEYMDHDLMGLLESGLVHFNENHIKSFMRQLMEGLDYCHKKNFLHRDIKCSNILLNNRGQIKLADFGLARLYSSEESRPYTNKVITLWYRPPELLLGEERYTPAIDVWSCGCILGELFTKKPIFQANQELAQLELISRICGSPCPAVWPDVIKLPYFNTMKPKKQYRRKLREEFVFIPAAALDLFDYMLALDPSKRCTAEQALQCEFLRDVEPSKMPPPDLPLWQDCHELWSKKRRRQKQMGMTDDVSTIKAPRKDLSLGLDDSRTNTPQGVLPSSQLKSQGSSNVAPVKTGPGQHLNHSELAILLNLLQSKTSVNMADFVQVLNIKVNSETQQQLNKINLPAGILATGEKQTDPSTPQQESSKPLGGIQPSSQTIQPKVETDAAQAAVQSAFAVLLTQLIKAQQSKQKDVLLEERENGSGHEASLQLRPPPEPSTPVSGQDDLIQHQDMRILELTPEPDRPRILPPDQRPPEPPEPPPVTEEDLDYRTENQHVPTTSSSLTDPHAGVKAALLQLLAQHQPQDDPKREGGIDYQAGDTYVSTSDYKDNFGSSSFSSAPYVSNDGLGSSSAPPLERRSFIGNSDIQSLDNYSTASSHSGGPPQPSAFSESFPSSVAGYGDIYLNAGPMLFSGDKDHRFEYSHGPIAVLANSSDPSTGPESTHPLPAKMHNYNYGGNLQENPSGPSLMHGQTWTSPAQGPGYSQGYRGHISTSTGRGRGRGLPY
Sequence of CDK13/cyclinK(h) (O75909 whole entry partner): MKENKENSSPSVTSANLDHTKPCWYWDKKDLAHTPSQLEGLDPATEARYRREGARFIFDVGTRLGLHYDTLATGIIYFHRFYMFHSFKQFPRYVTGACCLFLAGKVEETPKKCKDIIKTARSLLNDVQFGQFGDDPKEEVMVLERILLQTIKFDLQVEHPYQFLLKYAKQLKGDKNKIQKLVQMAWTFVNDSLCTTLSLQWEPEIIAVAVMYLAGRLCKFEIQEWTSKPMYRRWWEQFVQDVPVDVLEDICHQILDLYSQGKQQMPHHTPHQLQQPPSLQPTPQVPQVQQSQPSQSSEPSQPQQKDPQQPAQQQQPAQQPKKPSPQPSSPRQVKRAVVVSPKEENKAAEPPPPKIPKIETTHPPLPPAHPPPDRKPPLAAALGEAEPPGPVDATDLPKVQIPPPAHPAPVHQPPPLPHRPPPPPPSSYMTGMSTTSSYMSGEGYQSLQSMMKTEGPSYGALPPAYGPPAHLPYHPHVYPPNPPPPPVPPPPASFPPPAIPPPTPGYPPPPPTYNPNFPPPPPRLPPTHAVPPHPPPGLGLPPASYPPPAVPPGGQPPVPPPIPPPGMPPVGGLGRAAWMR
Sequence of STK32A(h) (Q8WU08 whole entry): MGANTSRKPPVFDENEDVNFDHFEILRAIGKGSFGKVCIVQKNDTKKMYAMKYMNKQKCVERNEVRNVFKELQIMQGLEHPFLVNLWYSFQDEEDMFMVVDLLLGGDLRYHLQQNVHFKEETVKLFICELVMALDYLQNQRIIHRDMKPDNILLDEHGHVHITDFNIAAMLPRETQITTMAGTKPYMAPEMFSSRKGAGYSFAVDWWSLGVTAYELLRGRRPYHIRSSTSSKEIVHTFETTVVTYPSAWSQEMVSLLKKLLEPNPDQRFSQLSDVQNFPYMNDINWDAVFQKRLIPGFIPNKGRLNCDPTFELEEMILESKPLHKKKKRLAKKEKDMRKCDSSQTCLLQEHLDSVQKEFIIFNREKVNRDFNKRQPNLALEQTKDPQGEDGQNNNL
Sequence of TAF1L(h) (Q8IZX4 whole entry): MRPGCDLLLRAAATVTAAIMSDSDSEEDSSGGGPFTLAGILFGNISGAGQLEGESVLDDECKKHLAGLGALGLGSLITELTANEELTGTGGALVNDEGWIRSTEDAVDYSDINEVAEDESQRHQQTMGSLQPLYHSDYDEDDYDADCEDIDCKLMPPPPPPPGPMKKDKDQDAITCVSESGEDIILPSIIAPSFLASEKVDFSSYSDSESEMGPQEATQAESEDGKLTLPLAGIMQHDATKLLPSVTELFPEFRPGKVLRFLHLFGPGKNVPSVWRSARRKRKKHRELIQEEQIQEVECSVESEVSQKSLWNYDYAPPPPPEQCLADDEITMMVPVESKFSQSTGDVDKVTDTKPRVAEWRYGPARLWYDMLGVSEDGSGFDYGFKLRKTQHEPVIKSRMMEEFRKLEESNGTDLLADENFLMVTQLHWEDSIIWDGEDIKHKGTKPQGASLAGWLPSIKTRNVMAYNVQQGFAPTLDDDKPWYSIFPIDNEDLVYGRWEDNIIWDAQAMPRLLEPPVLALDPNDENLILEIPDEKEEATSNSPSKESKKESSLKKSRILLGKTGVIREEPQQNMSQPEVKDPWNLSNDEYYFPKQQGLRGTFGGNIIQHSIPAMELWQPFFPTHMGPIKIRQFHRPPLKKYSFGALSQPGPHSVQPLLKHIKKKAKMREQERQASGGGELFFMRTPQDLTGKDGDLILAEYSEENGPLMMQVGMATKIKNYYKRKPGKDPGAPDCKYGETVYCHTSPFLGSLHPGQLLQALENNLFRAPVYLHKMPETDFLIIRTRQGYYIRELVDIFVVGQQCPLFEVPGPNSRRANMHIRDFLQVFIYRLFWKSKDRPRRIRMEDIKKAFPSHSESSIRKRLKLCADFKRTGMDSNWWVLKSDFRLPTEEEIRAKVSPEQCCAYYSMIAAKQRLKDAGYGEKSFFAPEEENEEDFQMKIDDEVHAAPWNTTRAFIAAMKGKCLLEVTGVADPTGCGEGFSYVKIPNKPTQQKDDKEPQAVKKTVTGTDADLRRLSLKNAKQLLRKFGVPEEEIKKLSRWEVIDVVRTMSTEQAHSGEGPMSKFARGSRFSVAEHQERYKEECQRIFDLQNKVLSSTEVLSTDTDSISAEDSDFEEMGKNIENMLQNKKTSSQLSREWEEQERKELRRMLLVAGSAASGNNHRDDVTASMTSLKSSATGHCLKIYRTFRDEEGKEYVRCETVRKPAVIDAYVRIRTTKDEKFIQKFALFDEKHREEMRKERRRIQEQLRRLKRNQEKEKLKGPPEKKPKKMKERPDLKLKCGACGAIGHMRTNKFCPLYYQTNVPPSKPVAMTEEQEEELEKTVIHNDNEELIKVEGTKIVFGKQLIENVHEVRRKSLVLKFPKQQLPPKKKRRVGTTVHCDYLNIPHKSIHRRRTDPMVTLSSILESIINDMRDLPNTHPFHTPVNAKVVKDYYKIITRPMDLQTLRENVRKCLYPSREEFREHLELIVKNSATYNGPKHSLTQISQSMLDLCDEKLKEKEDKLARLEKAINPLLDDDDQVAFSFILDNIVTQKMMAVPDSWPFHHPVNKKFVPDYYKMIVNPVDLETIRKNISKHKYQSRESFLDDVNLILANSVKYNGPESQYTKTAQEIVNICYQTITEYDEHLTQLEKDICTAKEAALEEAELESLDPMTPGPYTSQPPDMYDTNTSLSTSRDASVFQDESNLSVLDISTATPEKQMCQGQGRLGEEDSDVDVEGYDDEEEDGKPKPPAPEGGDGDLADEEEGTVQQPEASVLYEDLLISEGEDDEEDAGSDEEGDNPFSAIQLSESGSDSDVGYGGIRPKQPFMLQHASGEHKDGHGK

Fc1ccc(CNc2ncnc3ccc(F)cc23)cc1 [5aa, 6-Fluoro-N-(4-fluorobenzyl)-4-Quinazolinamine]
remaining activity at 10 µM (MAP4K3(h); [1]): 99% | remaining activity at 10 µM (CDK13/cyclinK(h); [1]): 75% | remaining activity at 10 µM (PhKγ2(h); [1]): 78% | remaining activity at 10 µM (PKCε(h); [1]): 95% | remaining activity at 10 µM (TAF1L(h); [1]): 80% | remaining activity at 10 µM (STK32A(h); [1]): 95%

Fc1ccc(CCNc2ncnc3ccc(F)cc23)cc1 [5as, 6-Fluoro-N-[2-(4-Fluorophenyl)Ethyl]-4-Quinazolinamine]
remaining activity at 10 µM (MAP4K3(h); [2]): 87% | remaining activity at 10 µM (CDK13/cyclinK(h); [2]): 35% | remaining activity at 10 µM (PhKγ2(h); [2]): 91% | remaining activity at 10 µM (PKCε(h); [2]): 93% | remaining activity at 10 µM (TAF1L(h); [2]): 66% | remaining activity at 10 µM (STK32A(h); [2]): 99%

Fc1ccc2ncnc(NCCc3ccc(Cl)cc3)c2c1 [5at, N-[2-(4-Chlorophenyl)Ethyl]-6-Fluoro-4-Quinazolinamine]
remaining activity at 10 µM (MAP4K3(h); [3]): 93% | remaining activity at 10 µM (CDK13/cyclinK(h); [3]): 114% | remaining activity at 10 µM (PhKγ2(h); [3]): 82% | remaining activity at 10 µM (PKCε(h); [3]): 86% | remaining activity at 10 µM (TAF1L(h); [3]): 70% | remaining activity at 10 µM (STK32A(h); [3]): 100%

COc1ccc2ncnc(Nc3cccc(F)c3)c2c1 [5ay, N-(3-Fluorophenyl)-6-Methoxy-4-Quinazolinamine]
remaining activity at 10 µM (MAP4K3(h); [4]): 87% | remaining activity at 10 µM (CDK13/cyclinK(h); [4]): 105% | remaining activity at 10 µM (PhKγ2(h); [4]): 109% | remaining activity at 10 µM (PKCε(h); [4]): 93% | remaining activity at 10 µM (TAF1L(h); [4]): 32% | remaining activity at 10 µM (STK32A(h); [4]): 103%

From PMC7827406, “Structure–Activity Relationship (SAR) Study of Spautin-1 to Entail the Discovery of Novel NEK4 Inhibitors” (International Journal of Molecular Sciences, 2021)
